Consider 2 molecules from patent US20260070921A1, “COMPOUND, ENDOPLASMIC RETICULUM STRESS INHIBITOR, PHARMACEUTICAL PRODUCT, OPHTHALMIC AGENT, EYE DROPS, COMPOSITION, AND METHOD FOR PRODUCING COMPOUND” (KYOTO UNIVERSITY, priority 2022, published 2026).

One data set has as its system fibronectin. Description: Western blotting of TGF-β2-induced fibronectin production in iFECD. The settings on record: TGF-β2 stimulated iFECD. It is filed as cell-based, human. As for the experimental part: 5 μg of the extracted proteins were separated by SDS-PAGE and transferred to a nitrocellulose membrane. The primary antibodies used were mouse anti-fibronectin antibody (BD Bioscience, 610077) and mouse anti-GAPDH antibody (MBL, M171-3). The secondary antibodies used were peroxidase-labeled anti-rabbit antibody and anti-mouse antibody (GE Healthcare Biosciences, NA931V, NA934V). The primary antibodies were diluted as follows: mouse anti-fibronectin antibody, 15,000-fold; and mouse anti-GAPDH antibody, 5,000-fold. The secondary antibodies were diluted 5,000-fold. For detection, Chemi Lumi ONE Ultra (Nacalai Tesque, 11644-40) was used. The intensity of the detected bands was analyzed using a LAS-4000mini lumino image analyzer (Fujifilm) and ImageQuant™ software (GE Healthcare).

Another data set relates to luciferase. Nature of the data set: Luciferase-based refolding assay in live cells. It is filed as cell-based. The settings on record: compound 1 100 μM, compound 6 25 μM, 20 h. As for the experimental part: HEK293 cells were seeded in 96-well plates (2×10^4 cells/well) and transfected with a luciferase expression plasmid (0.1 μg/well) using FuGENE HD (Promega). […] Refolding assay was performed as described in Walther, T. V.; Maddalo, D. Intracellular Refolding Assay. J Vis Exp 2012, No. 59. https://doi.org/10.3791/3540. Briefly speaking, luciferase was denatured in live cells by incubation at 45° C. for 30 minutes in the presence of 200 mM MOPS and 20 μg/mL cycloheximide. After the denaturation step, the cells were incubated at 37° C. for various times to allow the luciferase to refold. After cells were lysed with Reporter Lysis 5× Buffer (Promega), luciferase activity was measured.

Another data set deals with HEK293 cells. Description: Fluorescence imaging of self-assemblies in living cells (DCVJ). The settings on record: DCVJ 1.0 μM. Type of data set: cell-based. The method, then:
HEK293 cells were incubated with compound 1, 4, 5, or 6 (25 or 100 μM) in the presence of 1.0 μM DCVJ in DMEM (10% FBS). Fluorescence and bright-field images were taken with a CV1000 confocal microscope equipped with a 40× objective lens (Yokogawa Electric Corporation).
The ability of compound 1 and its derivatives, compounds 4 to 6, to form assemblies was also monitored in living cells. […] HEK293 cells were treated with compound 1, 4, 5, or 6 (25 μM or 100 μM) and 1.0 μM of DCVJ for 8 hours. Fluorescence and bright-field images were taken with a CV1000 confocal microscope. HEK293 cells were treated with compound 1, 4, 5, or 6 (25 or 100 μM) and DCVJ (1.0 μM) for 8 hours and observed with a confocal microscope. […] The self-assembling ability of the molecules of compound 6 may be due to its cellular activity at that concentration, even at 25 μM. […] To further support the importance of self-organization formation in cellular activity, dose-response curves for compounds 1 and 6 were determined. The biological activity of the compounds' molecular assembly is expected to be more cooperative than that of the monomer and to show a steeper dose-response curve (Reference Material 18 below). […] Compound 6 is referred to as “selfonamide” below. […] P. A High-Throughput Screen for Aggregation-Based Inhibition in a Large Compound Library. J Med Chem 2007, 50 (10), 2385-2390. https://doi.org/10.1021/jm061317y.

In the next data set the test system is iFECD. Description: TGF-β2-induced cell damage in iFECD (phase-contrast microscopy). To be noted: pretreatment 24 h, TGF-β2 10 ng/ml; compound 1 1-100 μM, compound 6 10 nM-1 μM. Type of data set: cell-based, human. The method, then:
The medium was removed from the culture dish, in which iFECD was being cultured, and 1×PBS(−) that had been pre-warmed to 37° C. was added to wash the cells. This procedure was performed twice. Again, 1×PBS(−) was added, and the cells were incubated at 37° C. (5% CO2) for 3 minutes. After the PBS(−) was removed, 0.05% Trypsin-EDTA (Nacalai Tesque, 32778-34) was added, and the cells were incubated at 37° C. ([…]) for 5 minutes. Thereafter, the cells were suspended in a medium and centrifuged at 1500 rpm for 3 minutes to recover the cells. The medium used was DMEM (Nacalai Tesque, 08456-36)+10% FBS (Biowest, S1820-500)+1% P/S (Nacalai Tesque, 26252-94).
iFECD cells were seeded in a 12-well plate at a density of 0.5×10^5 cells per well and cultured at 37° C.
The same method as described in the Materials and Methods section in Example 11-1 was used, except that compound 6 was used instead of compound 1, and the amount of iFECD seeded in a 12-well plate was changed from 0.5×10^5 cells per well to 0.9×10^5 cells per well.

The next data set has as its target denatured BSA-flu (Bos taurus, UniProt P02769). Description: Co-assembly with fluorescently labeled BSA (BSA-flu), confocal imaging. Type of data set: binding. The settings on record: 25° C. 19 h, excess unlabeled BSA 2.0 mg/mL. As for the experimental part:
To prepare denatured BSA-flu, a solution of BSA-flu (1.1 mg/mL) in PBS (pH of 7.4) was incubated at 80° C. for 1 hour. Native or denatured BSA-fluorescein (final concentration: 0.1 mg/mL) was added to a solution of compound 1 (100 μM) or compound 6 (25 μM) in PBS (pH of 7.4) containing 2.0 mg/mL BSA. The mixture was incubated at 25° C. for 19 hours and then images were taken with a CV1000 confocal microscope. The fluorescence intensity of the co-assemblies was quantified from the images obtained using ImageJ software.

The nature of data set [1]: Dynamic light scattering (DLS) of self-assemblies. It is filed as physicochemical. The source says: In the graphs on the left, the vertical axis “Z-ave. (nm)” represents the average particle size. In the graphs on the right, the vertical axis “Derived Count Rate (kcps)” represents the derived count rate. The horizontal axis represents the molar concentration (PM) of PBS (pH of 7.4) and DMEM (10% FBS). Error bars represent s.d. (n=3).
“Z-ave.” represents the average size of particles. Error bars represent s.d. (n=3).
“Z-average” represents the average size of particles. Error bars represent s.d. (n=3).

denatured BSA-flu, sequence (P02769 25-607): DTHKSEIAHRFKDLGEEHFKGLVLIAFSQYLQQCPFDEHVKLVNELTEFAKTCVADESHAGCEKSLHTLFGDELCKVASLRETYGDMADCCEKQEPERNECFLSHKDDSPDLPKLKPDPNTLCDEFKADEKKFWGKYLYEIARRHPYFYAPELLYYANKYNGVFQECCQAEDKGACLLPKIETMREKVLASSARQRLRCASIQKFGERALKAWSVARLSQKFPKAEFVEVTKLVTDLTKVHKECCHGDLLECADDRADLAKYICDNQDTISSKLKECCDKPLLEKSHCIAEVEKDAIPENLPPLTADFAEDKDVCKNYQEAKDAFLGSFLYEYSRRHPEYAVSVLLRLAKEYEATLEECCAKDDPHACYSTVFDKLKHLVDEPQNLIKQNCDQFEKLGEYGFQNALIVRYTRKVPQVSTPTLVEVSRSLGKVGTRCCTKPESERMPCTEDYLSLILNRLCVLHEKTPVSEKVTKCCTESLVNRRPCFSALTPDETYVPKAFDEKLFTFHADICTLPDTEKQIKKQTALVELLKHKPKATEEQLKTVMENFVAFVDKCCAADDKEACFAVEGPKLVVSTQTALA

`NS(=O)(=O)c1ccc(Nc2ccn3c(n2)nc(=O)c2sc4cc(F)ccc4c23)cc1` [compound 1]: the Fibronectin production entry in the data set on fibronectin was “almost no production of fibronectin was observed”. For the same molecule, the Refolding of luciferase entry in the data set with luciferase is “slightly inhibited refolding”. For the same molecule, the “Fluorescent particles within cells” value with HEK293 cells (100 μM, after 8 hours) is reported as “fluorescent particles were observed within the cells”. Besides, the “Cell damage induced by recombinant human TGF-β2” value in the data set with iFECD was “limited damage to corneal endothelial cells”. Further, the “Co-assembly with native or denatured BSA-flu” value on denatured BSA-flu is recorded as “selectively formed co-assemblies with heat-denatured BSA”. The “Average size of the assemblies (diameter)” value in data set [1] (DMEM (10% FBS), 100 μM) was roughly 200 nm; in data set [1] (PBS (pH of 7.4), 100 μM) it was “about 700 nm”.

Take `COc1ccc2c(c1)sc1c(=O)nc3nc(Nc4ccc(S(N)(=O)=O)cc4)ccn3c12` [compound 6]: the Fibronectin production entry in the data set on fibronectin was “almost no production of fibronectin was observed”. Besides, in the data set with luciferase, the Refolding of luciferase entry was “slightly inhibited refolding”. Also, in the data set with HEK293 cells (25 μM, 8 h), the Assemblies within cells result was “showed detectable assemblies within cells”. Further, the “Cell damage induced by recombinant human TGF-β2” value in the data set with iFECD is reported as “limited damage to corneal endothelial cells”. Further, at denatured BSA-flu, the “Co-assembly with native or denatured BSA-flu” value is given as “selectively formed co-assemblies with heat-denatured BSA”. Besides, in data set [1] (cell culture medium, 25 μM), the “Average size of the assemblies (diameter)” value turned out to be 130 nm.
